Test results published in patent US20070027143A1, “Novel substituted 2,3-benzodiazepine derivatives” (priority 2003, published 2007).
Marks after values point to notes of the source that are not given here.

Tests used:
AMPA receptors = experiment: Inhibition of AMPA induced spreading depression in isolated chicken retina; format: cell-based; conditions: AMPA (5 μM)
In short: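 Isolated chicken retina; spreading depression evoked by 5 μM AMPA. Antagonism read as prolongation of the latency to spreading-depression onset.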

CD1 mice [1] = experiment: Anticonvulsant activity, maximal electroshock seizure (MES) test; format: in vivo; conditions: Mus musculus, po.
CD1 mice [2] = experiment: Anticonvulsant activity, pentetrazole induced seizures; format: in vivo; conditions: Mus musculus; po.; read-out: Pentetrazol ED50
In short: (§1)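 Read-out: clonic-tonic seizures and lethality after chemical challenge in male CD1 mice, pretreated orally (three doses, ten animals each) typically 60 min earlier.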

CD1 mice [3] = experiment: Anticonvulsant activity, bemegride induced seizures; format: in vivo; conditions: Mus musculus; po.; read-out: Bemegride ED50
In short: as §1

CD1 mice [4] = experiment: Anticonvulsant activity, bicuculline induced seizures; format: in vivo; conditions: Mus musculus; po.; read-out: Bicuculline ED50
In short: as §1

CD1 mice [5] = experiment: Anticonvulsant activity, 4-aminopyridine induced seizures; format: in vivo; conditions: Mus musculus; po.; read-out: 4-AP ED50
In short: as §1

CD1 mice [6] = experiment: Anticonvulsant activity, 3-mercapto-propionic acid induced seizures; format: in vivo; conditions: Mus musculus; po.; read-out: 3-MPA ED50
In short: as §1

CD1 mice [7] = experiment: Muscle relaxant activity, inclined screen test; format: in vivo; conditions: Mus musculus, ip
CD1 mice [8] = experiment: Muscle relaxant activity, rotarod test; format: in vivo; conditions: Mus musculus, ip
rats = experiment: Inhibition of focal ischemia, middle cerebral artery occlusion (MCAO) test; format: in vivo
Method: The focal anti-ischemic activity of the compounds of formula (I) or (II) of the present invention was measured by the “middle cerebral artery occlusion” (MCAO) test (Bartus Stroke 11:2265 (1994) and Sydserff et al, Brit. J. Pharmacol. 114:1631 (1995)). […] After a histological process (TTC staining) 24 h later, the infarcted area was determined by a computer assisted scanner program and was compared to the results obtained in a control group treated with the vehicle.

Lewis rats = experiment: Autoimmune encephalomyelitis model, histological symptoms; format: in vivo; conditions: day 24 after immunization
Method: 5-15 animals were used in each group. Their weights were 160-180 g (Lewis rats, female) and 180-220 g (Lewis rats, male). The activity of the compounds was determined according to the symptom score values, and compared to those of the control group (see Table 6). Histopathological investigations were carried out on the brain stem, the spinal cord, and the sciatic nerve (Gijbels et al., J. Clin. Invest. 94:2177 (1994)) using 5-10 animal/group.
Compounds of the invention were further investigated in the autoimmune encephalomyelitis model in rats as outlined in this description before, with the variance that 10 animals were used in each group, of weights 140-160 g (Lewis rats, female).

CD1 mice [9] = experiment: Anti-tremor effect, oxotremorine induced tremor; format: in vivo; conditions: for ED50: Mus musculus, po., Litchfield-Wilcoxon, limits in brackets, read-out: ED50, tremor induced by Oxotremorin 1 mg/kg ip.
CD1 mice [10] = experiment: Anti-tremor effect, GYKI 20039 induced tremor; format: in vivo; conditions: Mus musculus; po., Litchfield-Wilcoxon, limits in brackets; read-out: ED50, tremor induced by GYKI 20039 10 mg/kg ip.
BN rats = experiment: Airway eosinophilia of ovalbumin sensitized, antigen challenged BN rats (BALF eosinophil count); format: in vivo; conditions: 3.0 mg/kg po, 2 hours pre-challenge, mean ± SE
Text: Bronchial hyperresponsiveness (BHR) and airway eosinophilia (AEP) are characteristic features of bronchial asthma. BHR is typified by an exaggerated response to a wide variety of stimuli that can induce an increased resistance to airflow in the airways. AEP is a result of prolonged eosinophil infiltration, mast cell, and T cell activation in the airways. In actively (e.g., ovalbumin) immunized rats (e.g., Brown Norway [BN] strain), repeated sensitization followed by antigenic challenge results in lung eosinophilia and bronchial hyperresponsiveness to different spasmogens (e.g., acetylcholine). This is the most frequently employed model for studying potential anti-asthmatic effects of new chemical entities.
BN rats were actively immunized with allergen (ovalbumin). On day one, rats were sensitized with the subcutaneous administration of ovalbumin suspended in Al(OH)3 (2.5 μg ovalbumin +20 mg Al(OH)3 in 0.5 ml saline). Booster injections (same dose and same route) were given at day 14 and 21. Simultaneously at each occasion 0.25 ml of Bordatella pentussis vaccine was injected intraperitoneally. On day 28, animals were challenged by inhalation of the antigen (vaporized 1% OVA solution for 1 hour). Test compounds were administered orally 2 hours pre-challenge.
48 hours following challenge, they were sacrificed by an overdose of urethane (4-5 ml of 15% urethane given i.p.), bronchoalveolar lavage fluid (BALF) was obtained, and tracheae dissected from the animals. Eosinophil cell count (cells/ml BALF) was determined manually using a selective stain for eosinophils and counting the cells in a Buerker chamber. BHR was determined using tracheal rings suspended in an organ bath. After an equilibration period of 30 minutes, cumulative concentration response curves to acetylcholine were determined. Maximal response of control (unchallenged, non-treated) tracheal rings is obtained at 10^−3 M acetylcholine. The height of this response is defined as 100%. All other contractions are expressed as a percentage and related to the control response.

[11] = 0.5 h, 30′, read-out: MES 30′ ED50
[12] = 1 h, 60 min before induction, read-out: MES (MES 60′) ED50
[13] = 2 mg/kg iv. 6x in every 30 min, first treatment 120 min after occlusion
[14] = 2 mg/kg iv. 6x in every 30 min, first treatment 180 min after occlusion

Cc1nnc(N2N=C(c3ccc(N)cc3)c3cc4c(cc3C[C@H]2C)OCO4)s1 [Example 86, (R)-5-(4-Aminophenyl)-8-methyl-7-(5-methyl-1,3,4-thiadiazol-2-yl)-8,9-dihydro-7H-1,3-dioxolo-[4,5-h][2,3]benzodiazepine]
IC50 (AMPA receptors): 420 nM
ED50 (CD1 mice [1]; [11]): 4.3 mg/kg
ED50 (CD1 mice [1]; [12]): 6.1 mg/kg
ED50 (CD1 mice [2]): 10 mg/kg
ED50 (CD1 mice [3]): 11.2 mg/kg
ED50 (CD1 mice [4]): 4.6 mg/kg
ED50 (CD1 mice [5]): 10.1 mg/kg
ED50 (CD1 mice [6]): 4 mg/kg
ED50 (CD1 mice [7]): 3.9 mg/kg
ED50 (CD1 mice [8]): 0.8 mg/kg
Decrease of the infracted area in % compared to that of the control (rats; 1 mg/kg iv. 6x in every 30 min, first treatment 180 min after occlusion): 35* %
Neuroprotective activity when administered 3 h after the occlusion (rats; result in words): significant activity
Histological (histopathological) symptoms (change, %) (Lewis rats; 1.875 mg/kg ip., female rats): −15%
Histological symptoms (change, %) (Lewis rats; 1.875 mg/kg ip., male rats): −25%
Histological (histopathological) symptoms (change, %) (Lewis rats; 3.75 mg/kg ip., female rats): −20%
Histological symptoms (change, %) (Lewis rats; 3.75 mg/kg ip., male rats): +4%
Histological symptoms (change, %) (Lewis rats; 7.5 mg/kg ip., female rats): −22%
Histological symptoms (change, %) (Lewis rats; 7.5 mg/kg ip., male rats): +1%
Histological symptoms (change, %) (Lewis rats; 15 mg/kg ip., female rats): −53%
Histological symptoms (change, %) (Lewis rats; 15 mg/kg ip., male rats): −66%
ED50 (CD1 mice [9]): 4.3 mg/kg
Anti-tremor activity compared to the reference compounds (CD1 mice [9]; oxotremorine, GYKI 20039 and harmaline, result in words): more active than the reference compounds GYKI 53773 and GYKI 52466
ED50 (CD1 mice [10]): 6.8 mg/kg
BALF eosinophil number (BN rats): 1.32 ± 0.32 ×10^6/ml

Cc1nnc(N2N=C(c3ccc(N)c(C)c3)c3cc4c(cc3C[C@H]2C)OCO4)s1 [Example 119, (R)-5-(4-amino-3-methylphenyl)-8-methyl-7-(5-methyl-1,3,4-thiadiazol-2-yl)-8,9-dihydro-7H-1,3-dioxolo-[4,5-h][2,3]benzodiazepine]
IC50 (AMPA receptors): 69 nM
ED50 (CD1 mice [1]; [11]): 2.15 mg/kg
ED50 (CD1 mice [1]; [12]): 2.87 mg/kg
ED50 (CD1 mice [2]): 5 mg/kg
ED50 (CD1 mice [3]): 5.7 mg/kg
ED50 (CD1 mice [4]): 2.5 mg/kg
ED50 (CD1 mice [5]): 2.68 mg/kg
ED50 (CD1 mice [6]): 3.37 mg/kg
ED50 (CD1 mice [7]): 2.49 mg/kg
ED50 (CD1 mice [8]): 0.51 mg/kg
Decrease of the infracted area in % compared to that of the control (rats; 0.5 mg/kg iv. 6x in every 30 min, first treatment 120 min after occlusion): 7%
Decrease of the infracted area in % compared to that of the control (rats; 1 mg/kg iv. 6x in every 30 min, first treatment 120 min after occlusion): 38%
Decrease of the infracted area in % compared to that of the control (rats; 1.5 mg/kg iv. 6x in every 30 min, first treatment 120 min after occlusion): 51* %
Decrease of the infracted area in % compared to that of the control (rats; 1.5 mg/kg iv. 6x in every 30 min, first treatment 180 min after occlusion): 21%
Decrease of the infracted area in % compared to that of the control (rats; [13]): 56* %
Decrease of the infracted area in % compared to that of the control (rats; [14]): 44** %
Decrease of the infracted area in % compared to that of the control (rats; 2.0 mg/kg iv. 6x in every 30 min, first treatment 240 min after occlusion): 21%
Histopathological symptoms (change %) (Lewis rats; 0.2 mg/kg i.p., female rats): +2%
Histopathological symptoms (change %) (Lewis rats; 0.5 mg/kg i.p., female rats): −13%
Histopathological symptoms (change %) (Lewis rats; 0.5 mg/kg p.o., female rats): −16%
Histopathological symptoms (change %) (Lewis rats; 1.0 mg/kg i.p., female rats): −3%
Histopathological symptoms (change %) (Lewis rats; 1.0 mg/kg p.o., female rats): −21%
Histological (histopathological) symptoms (change, %) (Lewis rats; 1.875 mg/kg ip., female rats): −8%
Histopathological symptoms (change %) (Lewis rats; 1.875 mg/kg p.o., female rats): −42%
Histological (histopathological) symptoms (change, %) (Lewis rats; 3.75 mg/kg ip., female rats): +3%
Histopathological symptoms (change %) (Lewis rats; 3.75 mg/kg p.o., female rats): −32%
ED50 (CD1 mice [9]): 1.38 mg/kg
ED50 (CD1 mice [10]): 2.21 mg/kg
BALF eosinophil number (BN rats): 1.16 ± 0.24 ×10^6/ml

CC(=O)N1N=C(c2ccc(N)cc2)c2cc3c(cc2C[C@H]1C)OCO3 [GYKI 53773, (R)-7-acetyl-5-(4-aminophenyl)-8,9-dihydro-8-methyl-7H-1,3-dioxolo[4,5-h][2,3]benzodiazepine, reference compound]
IC50 (AMPA receptors): 1200 nM
ED50 (CD1 mice [1]; [11]): 4.9 mg/kg
ED50 (CD1 mice [1]; [12]): 8.6 mg/kg
ED50 (CD1 mice [2]): 16.8 mg/kg
ED50 (CD1 mice [3]): 23.9 mg/kg
ED50 (CD1 mice [4]): 14.6 mg/kg
ED50 (CD1 mice [5]): 8.4 mg/kg
ED50 (CD1 mice [6]): 17.1 mg/kg
ED50 (CD1 mice [7]): 13.4 mg/kg
ED50 (CD1 mice [8]): 2.3 mg/kg
Decrease of the infracted area in % compared to that of the control (rats; 2 mg/kg iv. 6x in every 30 min, first treatment 30 min after occlusion): 47* %
Decrease of the infracted area in % compared to that of the control (rats; [13]): 49** %
Decrease of the infracted area in % compared to that of the control (rats; [14]): 26%
Histological symptoms (change, %) (Lewis rats; 30 mg/kg ip., female rats): −16%
Histological symptoms (change, %) (Lewis rats; 30 mg/kg ip., male rats): +34%
ED50 (CD1 mice [9]): 5.6 mg/kg
ED50 (CD1 mice [10]): 10.6 mg/kg
BALF eosinophil number (BN rats): 1.29 ± 0.11 ×10^6/ml
